Source: ChEMBL document CHEMBL3137667, “[Drug-induced liver injury; fourteenth updated edition of the bibliographic database of liver injuries and related drugs]” (Gastroenterol Clin Biol, 2004)

Assays:
[1] = human
[2] = human; remark: listed apart in the source
[3] = human, serum, 4383 h
[4] = human; remark: listed apart in the source
[5] = human; remark: listed apart in the source
[6] = human; remark: listed apart in the source
[7] = Highest frequency of acute liver toxicity observed during clinical trials, expressed as a percentage. [column '% AIGUE' in source]; conditions: human
[8] = human; remark: listed apart in the source
[9] = human, serum
[10] = human; remark: listed apart in the source
[11] = human; remark: listed apart in the source
[12] = Highest frequency of moderate liver toxicity observed during clinical trials, expressed as a percentage. [column '% BIOL' in source]; conditions: human
[13] = human; remark: listed apart in the source
[14] = human, serum; remark: listed apart in the source
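Wherever Hepatotoxicity (association with vascular disease) is given: count of indexed literature references reporting vascular liver injury in humans, e.g. peliosis hepatitis, hepatic veno-occlusive disease or Budd-Chiari syndrome.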
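Wherever Hepatotoxicity (benign tumour) is given: value is a count of indexed literature references citing a benign tumour confirmed by histopathology.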
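Wherever Hepatotoxicity (choleostasis) is given: human cholestatic liver injury, shown by histopathology or by peak ALT or AST elevation over alkaline phosphatase ratio below 2, value counts indexed literature reports.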
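Wherever Hepatotoxicity (chronic liver disease) is given: chronic liver injury confirmed by histopathology or persistently raised serum aminotransferase activity beyond 6 months, value given as the count of indexed literature references.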
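Wherever Hepatotoxicity (cirrhosis) is given: value is a count of indexed literature references reporting cirrhosis confirmed by histopathology.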
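Wherever Hepatotoxicity (cytolytic) is given: human cytolytic liver injury, shown by histopathology or by a ratio above 5 of peak ALT or AST elevation to alkaline phosphatase elevation, value counts indexed references.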
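Wherever Hepatotoxicity (granulomatous hepatitis) is given: value is a count of indexed literature references reporting granulomatous liver disease confirmed by histopathology.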
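Wherever Hepatotoxicity (malignant tumour) is given: malignant tumour confirmed by histopathology, value gives the count of indexed literature references reporting it.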
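Wherever Hepatotoxicity (severe hepatitis) is given: human clinical data: severe hepatitis, meaning potentially life-threatening liver failure or clinically observed cases, the value counts how many indexed literature references report it.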
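Wherever Hepatotoxicity (steatosis) is given: steatosis confirmed by histopathology, value is the count of indexed references.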

| Compound | Hepatotoxicity (cirrhosis) [1] | Hepatotoxicity (steatosis) [2] | Hepatotoxicity (chronic liver disease) [3] | Hepatotoxicity (malignant tumour) [4] | Hepatotoxicity (granulomatous hepatitis) [5] | Hepatotoxicity (benign tumour) [6] | Hepatotoxicity (acute) [7] [%] | Hepatotoxicity (choleostasis) [8] | Hepatotoxicity (moderate) [9] | Hepatotoxicity (severe hepatitis) [10] | Hepatotoxicity (cytolytic) [11] | Hepatotoxicity (moderate) [12] [%] | Hepatotoxicity (association with vascular disease) [13] | Hepatotoxicity (acute) [14] |
| --- | --- | --- | --- | --- | --- | --- | --- | --- | --- | --- | --- | --- | --- | --- |
| COc1ccc2cc(CCC(C)=O)ccc2c1 [NABUMETONE] | 0 | 0 | 0 | 0 | 0 | 0 | 0 | 0 | 8 | 0 | 1 | 4.5 | 0 | 1 |
| O=C(CCOCCOCCOCCOCCC(=O)Nc1c(I)cc(I)c(C(=O)O)c1I)Nc1c(I)cc(I)c(C(=O)O)c1I [IODOXAMIC ACID] | 0 | 0 | 0 | 0 | 0 | 0 | 0 | 0 | 1 | 0 | 0 | 0 | 0 | 1 |
| CC(C)(C)C(=O)OCOC(=O)[C@@H]1N2C(=O)[C@@H](NC(=O)[C@H](N)c3ccccc3)[C@H]2SC1(C)C [PIVAMPICILLIN] | 0 | 0 | 0 | 0 | 0 | 0 | 0 | 0 | 0 | 0 | 1 | 0 | 0 | 1 |
| Cc1nc(NS(=O)(=O)c2ccc(N)cc2)oc1C [SULFAMOXOLE] | 0 | 0 | 0 | 0 | 0 | 0 | 0 | 0 | 0 | 0 | 0 | 0 | 0 | 1 |
| Nc1nc(N)nc(Nc2ccc([As]3SCC(CO)S3)cc2)n1 (centres undefined) [MELARSOPROL] | 0 | 0 | 0 | 0 | 0 | 0 | 0 | 0 | 3 | 0 | 0 | 1 | 0 | 0 |
| Cn1nnc2c(C(N)=O)ncn2c1=O [TEMOZOLOMIDE] | 0 | 0 | 0 | 0 | 0 | 0 | 3 | 0 | 1 | 0 | 1 | 47.5 | 0 | 1 |
| O=P1(NCCCl)OCCCN1CCCl (centres undefined) [IFOSFAMIDE] | 0 | 0 | 0 | 0 | 0 | 0 | 6 | 0 | 3 | 1 | 2 | 3.8 | 0 | 2 |
| C[Si](C)(C)c1cccc(C(=O)C(F)(F)F)c1 | 0 | 0 | 0 | 0 | 0 | 0 | 0 | 0 | 2 | 0 | 0 | 0 | 0 | 0 |
| Cc1cc(=O)n(-c2ccccc2)n1C [ANTIPYRINE] | 0 | 0 | 0 | 0 | 0 | 0 | 0 | 1 | 0 | 0 | 0 | 0 | 0 | 1 |
| COC(=O)C[C@](O)(CCCC(C)(C)O)C(=O)O[C@@H]1C(OC)=C[C@]23CCCN2CCc2cc4c(cc2[C@H]13)OCO4 [OMACETAXINE MEPESUCCINATE] | 0 | 0 | 0 | 0 | 0 | 0 | 0 | 0 | 3 | 0 | 0 | 15 | 0 | 0 |
| REVIPARIN SODIUM | 0 | 0 | 0 | 0 | 0 | 0 | 0 | 0 | 1 | 0 | 0 | 10.3 | 0 | 0 |
| CC1CN(c2cc3c(cc2F)c(=O)c(C(=O)O)cn3-c2ccc(F)cc2F)CCN1 (centres undefined) [TEMAFLOXACIN] | 0 | 0 | 0 | 0 | 0 | 0 | 0 | 0 | 33 | 0 | 0 | 44.4 | 0 | 0 |
| COc1cc2[nH]c(C)c(CCN3CCN(c4ccccc4)CC3)c2cc1OC [OXYPERTINE] | 0 | 0 | 0 | 0 | 0 | 0 | 0 | 0 | 1 | 0 | 0 | 0 | 0 | 0 |
| CCOP(=O)(OCC)C(C)NC(=O)N(CCCl)N=O (centres undefined) [FOTEMUSTINE] | 0 | 0 | 0 | 0 | 0 | 0 | 0 | 0 | 9 | 0 | 0 | 30.8 | 0 | 1 |
| CCOC(=O)NC1=C(N2CC2)C(=O)C(NC(=O)OCC)=C(N2CC2)C1=O [DIAZIQUONE] | 0 | 0 | 0 | 0 | 0 | 0 | 0 | 0 | 5 | 0 | 0 | 50 | 0 | 0 |
| COCc1c(C(=O)OC(C)C)ncc2[nH]c3ccc(OCc4ccccc4)cc3c12 [ABECARNIL] | 0 | 0 | 0 | 0 | 0 | 0 | 0 | 0 | 1 | 0 | 0 | 8 | 0 | 0 |
